≈ marks a conversion by molar mass, not a printed value. Where two headings read alike, the source gives them in different places.
Columns and labels:
Assay type in all cases: cell-based
[1] = system: S. aureus (UAMS-1625 strain); experiment: MIC by broth microdilution against S. aureus; conditions: Staphylococcus aureus, read-out: MIC S. aureus
[2] = system: A. baumannii (HUMC1 strain); experiment: MIC by broth microdilution against A. baumannii in RPMI + 10% FCS; conditions: Acinetobacter baumannii, read-out: MIC A. baumannii
[3] = system: M. abscessus subsp. abscessus ATCC 19977; experiment: MIC against M. abscessus in Middlebrook 7H9 + ADC; conditions: Mycobacteroides abscessus
[4] = ATCC19977, ATCC 19977, 7H9 + ADC, read-out: MIC M. abscessus

| SMILES | MIC [1] [µg/mL] | MIC ([2]; HUMC1 strain, RPMI + 10% FCS) [µg/mL] | MIC [3, 4] [µg/mL] | MIC [2] [µg/mL] | MIC ([3]; ATCC19977, read-out: MIC M. abscessus) [µg/mL] |
| --- | --- | --- | --- | --- | --- |
| CO[C@H]1/C=C/O[C@@]2(C)Oc3c(C)c(O)c4c(c3C2=O)C2=NC3(CCN(CC(C)C)CC3)NC2=C(NC(=O)/C(C)=C\C=C\[C@H](C)[C@H](O)[C@@H](C)[C@@H](O)[C@@H](C)[C@H](OC(=O)CC(=O)NCC2CCN(C)CC2)[C@@H]1C)C4=O [Compound 5] | 0.125 (≈ 0.125 µM) | ≤ 0.002 | 1 |  |  |
| CO[C@H]1/C=C/O[C@@]2(C)Oc3c(C)c(O)c4c(c3C2=O)C2=NC3(CCN(CC(C)C)CC3)NC2=C(NC(=O)/C(C)=C\C=C\[C@H](C)[C@H](O)[C@@H](C)[C@@H](O)[C@@H](C)[C@H](OC(=O)CC(=O)NC2CCN(C)CC2)[C@@H]1C)C4=O [Compound 6] | 0.03 (≈ 0.0304 µM) | ≤ 0.002 | 1 |  |  |
| CO[C@H]1/C=C/O[C@@]2(C)Oc3c(C)c(O)c4c(c3C2=O)C2=NC3(CCN(CC(C)C)CC3)NC2=C(NC(=O)/C(C)=C\C=C\[C@H](C)[C@H](O)[C@@H](C)[C@@H](O)[C@@H](C)[C@H](OC(=O)CC(=O)N2CCC(N(C)C)CC2)[C@@H]1C)C4=O [Compound 7] | 0.016 (≈ 0.016 µM) | ≤ 0.002 | 1 |  |  |
| CO[C@H]1/C=C/O[C@@]2(C)Oc3c(C)c(O)c4c(c3C2=O)C2=NC3(CCN(CC(C)C)CC3)NC2=C(NC(=O)/C(C)=C\C=C\[C@H](C)[C@H](O)[C@@H](C)[C@@H](O)[C@@H](C)[C@H](OC(=O)CC(=O)N2CCCCC2)[C@@H]1C)C4=O [Compound 8] | 0.016 (≈ 0.0167 µM) | 0.004 | 0.5 |  |  |
| CO[C@H]1/C=C/O[C@@]2(C)Oc3c(C)c(O)c4c(c3C2=O)C2=NC3(CCN(CC(C)C)CC3)NC2=C(NC(=O)/C(C)=C\C=C\[C@H](C)[C@H](O)[C@@H](C)[C@@H](O)[C@@H](C)[C@H](OC(=O)CC(=O)N2CCN(C)CC2)[C@@H]1C)C4=O [Compound 10] | 0.016 (≈ 0.0164 µM) | ≤ 0.002 | 1 |  |  |
| CO[C@H]1/C=C/O[C@@]2(C)Oc3c(C)c(O)c4c(c3C2=O)C2=NC3(CCN(CC(C)C)CC3)NC2=C(NC(=O)/C(C)=C\C=C\[C@H](C)[C@H](O)[C@@H](C)[C@@H](O)[C@@H](C)[C@H](OC(=O)CC(=O)N2CCN(c3ccccc3S(N)(=O)=O)CC2)[C@@H]1C)C4=O [Compound 12] | 0.125 (≈ 0.112 µM) | 0.03 | 0.5 |  |  |
| CO[C@H]1/C=C/O[C@@]2(C)Oc3c(C)c(O)c4c(c3C2=O)C2=NC3(CCN(CC(C)C)CC3)NC2=C(NC(=O)/C(C)=C\C=C\[C@H](C)[C@H](O)[C@@H](C)[C@@H](O)[C@@H](C)[C@H](OC(=O)CC(=O)N2CCC(N3CCN(C)C(=O)C3)CC2)[C@@H]1C)C4=O [Compound 15] | 0.016 (≈ 0.0149 µM) | 0.004 | 1 |  |  |
| CCOC(=O)CCNC(=O)CC(=O)O[C@H]1[C@H](C)[C@H](O)[C@H](C)[C@@H](O)[C@@H](C)/C=C/C=C(/C)C(=O)NC2=C3NC4(CCN(CC(C)C)CC4)N=C3c3c(c(O)c(C)c4c3C(=O)[C@@](C)(O/C=C/[C@H](OC)[C@H]1C)O4)C2=O [Compound 16] | 0.03 (≈ 0.0303 µM) | 0.004 | 2 |  |  |
| COC(=O)CNC(=O)CC(=O)O[C@H]1[C@H](C)[C@H](O)[C@H](C)[C@@H](O)[C@@H](C)/C=C/C=C(/C)C(=O)NC2=C3NC4(CCN(CC(C)C)CC4)N=C3c3c(c(O)c(C)c4c3C(=O)[C@@](C)(O/C=C/[C@H](OC)[C@H]1C)O4)C2=O [Compound 17] | 0.03 (≈ 0.0312 µM) | ≤ 0.002 | 2 |  |  |
| CO[C@H]1/C=C/O[C@@]2(C)Oc3c(C)c(O)c4c(c3C2=O)C2=NC3(CCN(CC(C)C)CC3)NC2=C(NC(=O)/C(C)=C\C=C\[C@H](C)[C@H](O)[C@@H](C)[C@@H](O)[C@@H](C)[C@H](OC(=O)CC(=O)Nc2ccc(CN3CCCCC3)cc2)[C@@H]1C)C4=O [Compound 18] | 0.06 (≈ 0.0564 µM) | ≤ 0.002 | 1 |  |  |
| CO[C@H]1/C=C/O[C@@]2(C)Oc3c(C)c(O)c4c(c3C2=O)C2=NC3(CCN(CC(C)C)CC3)NC2=C(NC(=O)/C(C)=C\C=C\[C@H](C)[C@H](O)[C@@H](C)[C@@H](O)[C@@H](C)[C@H](OC(=O)CC(=O)NCCN2CCN(C)CC2)[C@@H]1C)C4=O [Compound 20] | 0.03 (≈ 0.0295 µM) | ≤ 0.002 | 1 |  |  |
| CO[C@H]1/C=C/O[C@@]2(C)Oc3c(C)c(O)c4c(c3C2=O)C2=NC3(CCN(CC(C)C)CC3)NC2=C(NC(=O)/C(C)=C\C=C\[C@H](C)[C@H](O)[C@@H](C)[C@@H](O)[C@@H](C)[C@H](OC(=O)CC(=O)NCCN2CCOCC2)[C@@H]1C)C4=O [Compound 23] | 0.03 (≈ 0.0299 µM) | ≤ 0.002 | 1 |  |  |
| CO[C@H]1/C=C/O[C@@]2(C)Oc3c(C)c(O)c4c(c3C2=O)C2=NC3(CCN(CC(C)C)CC3)NC2=C(NC(=O)/C(C)=C\C=C\[C@H](C)[C@H](O)[C@@H](C)[C@@H](O)[C@@H](C)[C@H](OC(=O)CC(=O)OCc2ccccc2)[C@@H]1C)C4=O [Compound 26] | 0.5 (≈ 0.51 µM) | 0.03 | 4 |  |  |
| CO[C@H]1/C=C/O[C@@]2(C)Oc3c(C)c(O)c4c(c3C2=O)C2=NC3(CCN(CC(C)C)CC3)NC2=C(NC(=O)/C(C)=C\C=C\[C@H](C)[C@H](O)[C@@H](C)[C@@H](O)[C@@H](C)[C@H](OC(=O)CC(=O)OCC(C)C)[C@@H]1C)C4=O [Compound 27] | 0.125 (≈ 0.132 µM) | 0.016 | 4 |  |  |
| CO[C@H]1/C=C/O[C@@]2(C)Oc3c(C)c(O)c4c(c3C2=O)C2=NC3(CCN(CC(C)C)CC3)NC2=C(NC(=O)/C(C)=C\C=C\[C@H](C)[C@H](O)[C@@H](C)[C@@H](O)[C@@H](C)[C@H](OC(=O)CC(=O)NCCCN(C)C)[C@@H]1C)C4=O [Compound 29] | 0.03 (≈ 0.0308 µM) | ≤ 0.002 | 1 |  |  |
| CO[C@H]1/C=C/O[C@@]2(C)Oc3c(C)c(O)c4c(c3C2=O)C2=NC3(CCN(CC(C)C)CC3)NC2=C(NC(=O)/C(C)=C\C=C\[C@H](C)[C@H](O)[C@@H](C)[C@@H](O)[C@@H](C)[C@H](OC(=O)CC(=O)NCCN(C)C)[C@@H]1C)C4=O [Compound 30] | 0.03 (≈ 0.0312 µM) | ≤ 0.002 | 1 |  |  |
| CO[C@H]1/C=C/O[C@@]2(C)Oc3c(C)c(O)c4c(c3C2=O)C2=NC3(CCN(CC(C)C)CC3)NC2=C(NC(=O)/C(C)=C\C=C\[C@H](C)[C@H](O)[C@@H](C)[C@@H](O)[C@@H](C)[C@H](OC(=O)CC(=O)OCCc2ccccc2)[C@@H]1C)C4=O [Compound 31] | 1 (≈ 1 µM) | 0.125 | 4 |  |  |
| COCCCNC(=O)CC(=O)O[C@H]1[C@H](C)[C@H](O)[C@H](C)[C@@H](O)[C@@H](C)/C=C/C=C(/C)C(=O)NC2=C3NC4(CCN(CC(C)C)CC4)N=C3c3c(c(O)c(C)c4c3C(=O)[C@@](C)(O/C=C/[C@H](OC)[C@H]1C)O4)C2=O [Compound 34] | 0.016 (≈ 0.0166 µM) | ≤ 0.002 | 1 |  |  |
| CO[C@H]1/C=C/O[C@@]2(C)Oc3c(C)c(O)c4c(c3C2=O)C2=NC3(CCN(CC(C)C)CC3)NC2=C(NC(=O)/C(C)=C\C=C\[C@H](C)[C@H](O)[C@@H](C)[C@@H](O)[C@@H](C)[C@H](OC(=O)CC(=O)Nc2ccc(CN3CCN(C)CC3)cc2)[C@@H]1C)C4=O [Compound 36] | 0.016 (≈ 0.0148 µM) | ≤ 0.002 | 1 |  |  |
| CO[C@H]1/C=C/O[C@@]2(C)Oc3c(C)c(O)c4c(c3C2=O)C2=NC3(CCN(CC(C)C)CC3)NC2=C(NC(=O)/C(C)=C\C=C\[C@H](C)[C@H](O)[C@@H](C)[C@@H](O)[C@@H](C)[C@H](OC(=O)C(C)C(=O)N2CCCCC2)[C@@H]1C)C4=O (stereo partly drawn) [Compound 37] | 0.03 (≈ 0.0309 µM) | ≤ 0.002 | 0.5 |  |  |
| CO[C@H]1/C=C/O[C@@]2(C)Oc3c(C)c(O)c4c(c3C2=O)C2=NC3(CCN(CC(C)C)CC3)NC2=C(NC(=O)/C(C)=C\C=C\[C@H](C)[C@H](O)[C@@H](C)[C@@H](O)[C@@H](C)[C@H](OC(=O)C(C)C(=O)N2CCN(c3ccccc3S(N)(=O)=O)CC2)[C@@H]1C)C4=O (stereo partly drawn) [Compound 38] | 0.25 (≈ 0.222 µM) | 0.008 | 0.5 |  |  |
| CO[C@H]1/C=C/O[C@@]2(C)Oc3c(C)c(O)c4c(c3C2=O)C2=NC3(CCN(CC(C)C)CC3)NC2=C(NC(=O)/C(C)=C\C=C\[C@H](C)[C@H](O)[C@@H](C)[C@@H](O)[C@@H](C)[C@H](OC(=O)C(C)C(=O)N2CCC(Nc3ccccc3)CC2)[C@@H]1C)C4=O (stereo partly drawn) [Compound 41] | 0.5 (≈ 0.47 µM) |  |  | 0.016 | 0.5 |
| CO[C@H]1/C=C/O[C@@]2(C)Oc3c(C)c(O)c4c(c3C2=O)C2=NC3(CCN(CC(C)C)CC3)NC2=C(NC(=O)/C(C)=C\C=C\[C@H](C)[C@H](O)[C@@H](C)[C@@H](O)[C@@H](C)[C@H](OC(=O)C(C)C(=O)N2CCC(n3c(=O)[nH]c5ccccc53)CC2)[C@@H]1C)C4=O (stereo partly drawn) [Compound 42] | 0.5 (≈ 0.453 µM) | 0.03 | 0.5 |  |  |
| CO[C@H]1/C=C/O[C@@]2(C)Oc3c(C)c(O)c4c(c3C2=O)C2=NC3(CCN(CC(C)C)CC3)NC2=C(NC(=O)/C(C)=C\C=C\[C@H](C)[C@H](O)[C@@H](C)[C@@H](O)[C@@H](C)[C@H](OC(=O)C(C)C(=O)N2CCc3[nH]c5ccccc5c3C2)[C@@H]1C)C4=O (stereo partly drawn) [Compound 43] | 0.5 (≈ 0.472 µM) | 0.06 | 0.5 |  |  |

From US20250051356A1, “RIFABUTIN ANALOGS FOR THE TREATMENT OF DISEASE” (priority 2021, published 2025)
